Reference: ChEMBL document CHEMBL1833884, “Discovery of a brain-penetrant S1P₃-sparing direct agonist of the S1P₁ and S1P₅ receptors efficacious at low oral dose” (J Med Chem, 2011)

Legend:
[1] = molecular target: T1, Sphingosine 1-phosphate receptor 1 (Homo sapiens, UniProt P21453); experiment: Agonist activity at human S1P1 receptor expressed in CHO-K1 EDG1 cells expressing beta-arrestin 2 after 105 mins by chemi-luminescence assay; assay type: functional, cell-based
[2] = molecular target: T2, Sphingosine 1-phosphate receptor 3 (Homo sapiens, UniProt Q99500); experiment: Agonist activity at human S1P3 receptor expressed in RBL cells assessed as [35S]GTPgammaS binding after 3 hrs by radiometric assay; assay type: functional, cell-based
T2 sequence (Q99500 whole entry): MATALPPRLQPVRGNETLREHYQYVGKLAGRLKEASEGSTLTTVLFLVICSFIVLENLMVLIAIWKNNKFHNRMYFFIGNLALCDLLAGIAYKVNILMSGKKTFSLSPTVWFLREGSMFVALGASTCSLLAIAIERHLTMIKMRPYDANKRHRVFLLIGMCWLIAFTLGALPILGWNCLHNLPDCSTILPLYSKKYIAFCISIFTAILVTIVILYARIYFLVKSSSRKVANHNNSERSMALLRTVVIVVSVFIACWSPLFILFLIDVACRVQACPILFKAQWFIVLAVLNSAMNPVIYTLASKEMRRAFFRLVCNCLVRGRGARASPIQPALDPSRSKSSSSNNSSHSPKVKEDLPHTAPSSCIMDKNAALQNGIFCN

[3] = Chromatographic hydrophobicity index, log D of the compound at pH 7.4; assay type: physicochemical; conditions: buffer
[4] = Dissociation constant, pKa of the compound; assay type: physicochemical
hERG (KCNH2) = hERG (KCNH2) (Homo sapiens, UniProt Q12809); experiment: Inhibition of human ERG at 30 uM
Sequence of hERG (KCNH2) (Q12809 whole entry): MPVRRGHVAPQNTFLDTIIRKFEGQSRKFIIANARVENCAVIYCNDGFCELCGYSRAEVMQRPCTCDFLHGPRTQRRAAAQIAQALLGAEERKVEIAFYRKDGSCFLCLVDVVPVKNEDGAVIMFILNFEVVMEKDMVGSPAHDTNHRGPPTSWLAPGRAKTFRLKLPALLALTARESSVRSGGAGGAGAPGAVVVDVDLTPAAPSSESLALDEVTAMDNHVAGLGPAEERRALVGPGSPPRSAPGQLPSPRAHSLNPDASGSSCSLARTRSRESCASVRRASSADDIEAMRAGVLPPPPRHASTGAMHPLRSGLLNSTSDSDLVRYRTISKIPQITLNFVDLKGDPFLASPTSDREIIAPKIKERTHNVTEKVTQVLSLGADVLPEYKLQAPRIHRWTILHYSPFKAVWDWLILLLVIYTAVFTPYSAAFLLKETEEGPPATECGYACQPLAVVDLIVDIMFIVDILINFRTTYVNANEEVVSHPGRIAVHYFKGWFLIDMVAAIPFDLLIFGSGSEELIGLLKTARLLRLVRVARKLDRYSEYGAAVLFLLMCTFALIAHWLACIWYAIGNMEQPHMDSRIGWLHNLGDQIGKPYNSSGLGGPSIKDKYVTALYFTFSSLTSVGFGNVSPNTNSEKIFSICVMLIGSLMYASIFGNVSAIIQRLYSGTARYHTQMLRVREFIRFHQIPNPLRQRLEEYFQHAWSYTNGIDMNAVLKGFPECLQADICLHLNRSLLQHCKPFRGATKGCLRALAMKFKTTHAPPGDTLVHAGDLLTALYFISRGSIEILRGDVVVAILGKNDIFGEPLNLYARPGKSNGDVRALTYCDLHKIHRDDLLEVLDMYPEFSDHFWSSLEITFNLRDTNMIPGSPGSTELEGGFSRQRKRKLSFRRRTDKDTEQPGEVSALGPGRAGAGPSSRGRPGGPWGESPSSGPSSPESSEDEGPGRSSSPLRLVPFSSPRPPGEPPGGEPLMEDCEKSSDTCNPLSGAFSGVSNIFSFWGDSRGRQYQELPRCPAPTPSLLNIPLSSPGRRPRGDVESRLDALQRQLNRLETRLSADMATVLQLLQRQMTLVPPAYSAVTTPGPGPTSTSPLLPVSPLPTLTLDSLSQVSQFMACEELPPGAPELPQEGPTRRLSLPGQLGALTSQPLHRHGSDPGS

[5] = Blood clearance in CD rat at 1 mg/kg, iv; assay type: ADME, organism-based; design: dose 1 mg/kg, route intravenous
[6] = Volume of distribution at steady state in CD rat at 1 mg/kg, iv; assay type: ADME, organism-based; design: dose 1 mg/kg, route intravenous; conditions: in vivo, read-out: Vdss
[7] = Half life in CD rat at 1 mg/kg, iv; assay type: ADME, organism-based; design: dose 1 mg/kg, route intravenous; conditions: in vivo
[8] = Oral bioavailability in CD rat at 3 mg/kg; assay type: ADME, organism-based; conditions: in vivo
Rattus norvegicus [9] = experiment: Lymphopenic activity in Lewis rat assessed as reduction in blood lymphocyte counts at 1 mg/kg, po; assay type: functional; design: scale not given: the % may be the effect or the level left
Rattus norvegicus [10] = experiment: Metabolic stability of the compound in Lewis rat at 1 mg/kg, po; assay type: ADME, organism-based; design: dose 1 mg/kg, route oral; conditions: in vivo
[11] = molecular target: Voltage-gated inwardly rectifying potassium channel KCNH2 (Homo sapiens, UniProt Q12809)
Sequence of Voltage-gated inwardly rectifying potassium channel KCNH2 (Q12809 whole entry): as above

[12] = test system: MDR1 (P-glycoprotein), human; experiment: Efflux ratio of permeability in dog MDCK2 cells expressing human MDR1; assay type: ADME, cell-based, Canis lupus familiaris, MDCK-II; conditions: MDCK-MDR1
[13] = molecular target: T3, Sphingosine 1-phosphate receptor 2 (Homo sapiens, UniProt O95136); experiment: Agonist activity at human S1P2 receptor expressed in yeast MMY24 assessed as conversion of FDGlu to fluorescein after 24 hrs; assay type: functional
T3 sequence (O95136 whole entry): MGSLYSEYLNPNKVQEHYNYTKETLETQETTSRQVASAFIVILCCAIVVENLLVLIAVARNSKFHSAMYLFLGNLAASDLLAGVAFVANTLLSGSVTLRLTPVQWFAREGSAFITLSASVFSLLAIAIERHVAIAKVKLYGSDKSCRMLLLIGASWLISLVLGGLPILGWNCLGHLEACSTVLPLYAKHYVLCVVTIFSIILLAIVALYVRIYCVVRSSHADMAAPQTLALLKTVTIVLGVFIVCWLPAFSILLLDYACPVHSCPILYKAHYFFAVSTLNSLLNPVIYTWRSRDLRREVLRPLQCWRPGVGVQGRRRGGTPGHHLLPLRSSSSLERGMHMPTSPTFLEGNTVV

[14] = molecular target: T4, Sphingosine 1-phosphate receptor 4 (Homo sapiens) (UniProt O95977); experiment: Agonist activity at human S1P4 expressed in CHO-K1 aequorin cells assessed as calcium accumulation of by luminescence assay in presence of cofactor coelenterazine relative to control; assay type: functional, cell-based
T4 sequence (whole entry): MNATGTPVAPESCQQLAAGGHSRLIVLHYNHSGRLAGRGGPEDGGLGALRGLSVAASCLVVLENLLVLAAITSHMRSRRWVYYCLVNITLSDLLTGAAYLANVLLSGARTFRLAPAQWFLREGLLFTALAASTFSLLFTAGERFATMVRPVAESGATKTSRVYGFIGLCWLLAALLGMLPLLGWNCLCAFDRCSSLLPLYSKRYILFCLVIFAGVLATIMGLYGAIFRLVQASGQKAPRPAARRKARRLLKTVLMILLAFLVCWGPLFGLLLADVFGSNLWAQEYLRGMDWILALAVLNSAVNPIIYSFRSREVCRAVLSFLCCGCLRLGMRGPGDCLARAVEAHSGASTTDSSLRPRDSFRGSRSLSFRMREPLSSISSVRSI

[15] = molecular target: T5, Sphingosine 1-phosphate receptor 5 (Homo sapiens, UniProt Q9H228); experiment: Agonist activity at human S1P5 receptor expressed in CHO-K1 aequorin cells assessed as calcium accumulation of by luminescence assay in presence of cofactor coelenterazine; assay type: functional, cell-based
T5 sequence (Q9H228 whole entry): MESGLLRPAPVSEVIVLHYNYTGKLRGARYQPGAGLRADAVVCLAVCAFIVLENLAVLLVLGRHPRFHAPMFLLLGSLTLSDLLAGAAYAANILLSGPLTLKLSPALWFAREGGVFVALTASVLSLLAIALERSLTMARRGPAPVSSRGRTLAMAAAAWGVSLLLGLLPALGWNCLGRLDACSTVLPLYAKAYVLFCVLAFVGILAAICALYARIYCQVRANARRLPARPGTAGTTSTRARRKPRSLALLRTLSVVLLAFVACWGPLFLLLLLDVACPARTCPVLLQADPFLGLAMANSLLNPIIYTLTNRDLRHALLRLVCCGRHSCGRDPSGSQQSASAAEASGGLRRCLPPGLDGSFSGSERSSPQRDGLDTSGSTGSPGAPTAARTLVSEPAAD

[16] = molecular target: T6, Sphingosine 1-phosphate receptor 4 (Homo sapiens, UniProt O95977); experiment: Agonist activity at human S1P4 expressed in CHO-K1 aequorin cells assessed as calcium accumulation of by luminescence assay in presence of cofactor coelenterazine; assay type: functional, cell-based
T6 sequence (O95977 whole entry): T4 sequence (whole entry)

[17] = molecular target: T1, Sphingosine 1-phosphate receptor 1; experiment: Agonist activity at human S1P1 receptor expressed in CHO-K1 EDG1 cells expressing beta-arrestin 2 after 105 mins by chemi-luminescence assay relative to control; assay type: functional, cell-based
[18] = molecular target: T3, Sphingosine 1-phosphate receptor 2; experiment: Agonist activity at human S1P2 receptor expressed in yeast MMY24 assessed as conversion of FDGlu to fluorescein after 24 hrs relative to control; assay type: functional
[19] = molecular target: T2, Sphingosine 1-phosphate receptor 3; experiment: Agonist activity at human S1P3 receptor expressed in RBL cells assessed as [35S]GTPgammaS binding after 3 hrs by radiometric assay relative to control; assay type: functional, cell-based
[20] = molecular target: T5, Sphingosine 1-phosphate receptor 5; experiment: Agonist activity at human S1P5 receptor expressed in CHO-K1 aequorin cells assessed as calcium accumulation of by luminescence assay in presence of cofactor coelenterazine relative to control; assay type: functional, cell-based

T1 sequence (P21453 whole entry): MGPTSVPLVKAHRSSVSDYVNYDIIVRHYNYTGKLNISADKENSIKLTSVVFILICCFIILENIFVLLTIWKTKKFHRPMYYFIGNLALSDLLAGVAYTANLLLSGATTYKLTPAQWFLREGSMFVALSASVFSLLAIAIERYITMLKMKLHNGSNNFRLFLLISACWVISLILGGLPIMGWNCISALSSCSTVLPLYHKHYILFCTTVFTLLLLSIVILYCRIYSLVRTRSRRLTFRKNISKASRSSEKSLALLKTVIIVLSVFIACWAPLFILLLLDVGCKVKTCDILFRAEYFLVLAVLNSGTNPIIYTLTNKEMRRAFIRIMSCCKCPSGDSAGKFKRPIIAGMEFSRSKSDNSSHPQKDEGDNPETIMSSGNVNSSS

Q: Which EC50 [1] does the source give for `Cc1c(-c2noc(-c3ccc(OC(C)C)c(C#N)c3)n2)ccc2c1CCN(CC(=O)N[C@@H](C)CO)C2` here?
A: The EC50 was 0.00126 µM.

Q: And the EC50 [2]?
A: Its EC50 is 25.1 µM.

Q: And the chromatographic logD [3]?
A: The chromatographic logD was 3.04.

Q: What about the pKa [4] of the same compound?
A: The pKa was 6.07.

Q: And the inhibition at 30 µM (hERG (KCNH2))?
A: Its inhibition at 30 µM is 43%.

Q: And the clearance [5]?
A: Its clearance is 1.92 L/h/kg.

Q: What about the Vd [6] of the same compound?
A: The Vd was 4.4 L/kg.

Q: What about the half-life [7] of the same compound?
A: Its half-life is 2 h.

Q: And the bioavailability [8]?
A: Its bioavailability is 38%.

Q: And the Activity (Rattus norvegicus [9])?
A: Its Activity is 90%.

Q: What about the Stability (Rattus norvegicus [10]) of the same compound?
A: Its Stability is “Unstable”.

Q: What about the IC50 [11] of the same compound?
A: Its IC50 is greater than 10 µM.

Q: Which EC50 [1] does the source give for `Cc1c(-c2noc(-c3ccc(OC(C)C)c(C#N)c3)n2)cnc2c1CCN(C(CO)CO)C2` here?
A: Its EC50 is 0.02 µM.

Q: And the EC50 [2]?
A: Its EC50 is greater than 100 µM.

Q: And the chromatographic logD [3]?
A: The chromatographic logD was 2.

Q: And the pKa [4]?
A: The pKa was 6.22.

Q: What about the clearance [5] of the same compound?
A: The clearance was 1.26 L/h/kg.

Q: What about the Vd [6] of the same compound?
A: The Vd was 3.3 L/kg.

Q: What about the half-life [7] of the same compound?
A: The half-life was 2.1 h.

Q: And the bioavailability [8]?
A: Its bioavailability is 37%.

Q: And the Activity (Rattus norvegicus [9])?
A: The Activity was 70%.

Q: And the IC50 [11]?
A: Its IC50 is 12.6 µM.

Q: With `CC(C)Oc1ccc(-c2nc(-c3ccc4c(c3)CCN(C(CO)CO)C4)no2)cc1C#N` as the compound, how does the EC50 [1] read?
A: Its EC50 is 0.00794 µM.

Q: And the EC50 [2]?
A: Its EC50 is 6.31 µM.

Q: And the chromatographic logD [3]?
A: The chromatographic logD was 2.49.

Q: What about the pKa [4] of the same compound?
A: The pKa was 7.28.

Q: What about the clearance [5] of the same compound?
A: The clearance was 5.22 L/h/kg.

Q: And the Vd [6]?
A: Its Vd is 3.7 L/kg.

Q: What about the half-life [7] of the same compound?
A: Its half-life is 0.6 h.

Q: And the Activity (Rattus norvegicus [9])?
A: Its Activity is 49%.

Q: And the IC50 [11]?
A: The IC50 was 20 µM.

Q: For `Cc1c(-c2noc(-c3ccc(OC(C)C)c(C#N)c3)n2)ccc2c1CCN(CCC(=O)O)C2`, which efflux ratio [12] is on record?
A: Its efflux ratio is 6.

Q: What about the EC50 [1] of the same compound?
A: The EC50 was 0.00562 µM.

Q: And the EC50 [13]?
A: Its EC50 is greater than 33.1 µM.

Q: And the EC50 [2]?
A: Its EC50 is greater than 31.6 µM.

Q: And the Emax [14]?
A: Its Emax is 3%.

Q: And the EC50 [15]?
A: Its EC50 is 0.162 µM.

Q: And the EC50 [16]?
A: Its EC50 is greater than 41.7 µM.

Q: And the Emax [17]?
A: The Emax was 94%.

Q: And the Emax [18]?
A: The Emax was 1%.

Q: What about the Emax [19] of the same compound?
A: Its Emax is 35%.

Q: What about the Emax [20] of the same compound?
A: The Emax was 77%.
